Key:
[1] = molecular target: T1, ATP-dependent translocase ABCB1 (Homo sapiens, UniProt P08183); experiment: TP_TRANSPORTER: RT-PCR in vivo, duodenal; format: functional, organism-based, Duodenum
[2] = molecular target: T1, ATP-dependent translocase ABCB1; experiment: TP_TRANSPORTER: immunohistochemistry in vivo, duodenum; format: functional, organism-based

T1 sequence (P08183 whole entry): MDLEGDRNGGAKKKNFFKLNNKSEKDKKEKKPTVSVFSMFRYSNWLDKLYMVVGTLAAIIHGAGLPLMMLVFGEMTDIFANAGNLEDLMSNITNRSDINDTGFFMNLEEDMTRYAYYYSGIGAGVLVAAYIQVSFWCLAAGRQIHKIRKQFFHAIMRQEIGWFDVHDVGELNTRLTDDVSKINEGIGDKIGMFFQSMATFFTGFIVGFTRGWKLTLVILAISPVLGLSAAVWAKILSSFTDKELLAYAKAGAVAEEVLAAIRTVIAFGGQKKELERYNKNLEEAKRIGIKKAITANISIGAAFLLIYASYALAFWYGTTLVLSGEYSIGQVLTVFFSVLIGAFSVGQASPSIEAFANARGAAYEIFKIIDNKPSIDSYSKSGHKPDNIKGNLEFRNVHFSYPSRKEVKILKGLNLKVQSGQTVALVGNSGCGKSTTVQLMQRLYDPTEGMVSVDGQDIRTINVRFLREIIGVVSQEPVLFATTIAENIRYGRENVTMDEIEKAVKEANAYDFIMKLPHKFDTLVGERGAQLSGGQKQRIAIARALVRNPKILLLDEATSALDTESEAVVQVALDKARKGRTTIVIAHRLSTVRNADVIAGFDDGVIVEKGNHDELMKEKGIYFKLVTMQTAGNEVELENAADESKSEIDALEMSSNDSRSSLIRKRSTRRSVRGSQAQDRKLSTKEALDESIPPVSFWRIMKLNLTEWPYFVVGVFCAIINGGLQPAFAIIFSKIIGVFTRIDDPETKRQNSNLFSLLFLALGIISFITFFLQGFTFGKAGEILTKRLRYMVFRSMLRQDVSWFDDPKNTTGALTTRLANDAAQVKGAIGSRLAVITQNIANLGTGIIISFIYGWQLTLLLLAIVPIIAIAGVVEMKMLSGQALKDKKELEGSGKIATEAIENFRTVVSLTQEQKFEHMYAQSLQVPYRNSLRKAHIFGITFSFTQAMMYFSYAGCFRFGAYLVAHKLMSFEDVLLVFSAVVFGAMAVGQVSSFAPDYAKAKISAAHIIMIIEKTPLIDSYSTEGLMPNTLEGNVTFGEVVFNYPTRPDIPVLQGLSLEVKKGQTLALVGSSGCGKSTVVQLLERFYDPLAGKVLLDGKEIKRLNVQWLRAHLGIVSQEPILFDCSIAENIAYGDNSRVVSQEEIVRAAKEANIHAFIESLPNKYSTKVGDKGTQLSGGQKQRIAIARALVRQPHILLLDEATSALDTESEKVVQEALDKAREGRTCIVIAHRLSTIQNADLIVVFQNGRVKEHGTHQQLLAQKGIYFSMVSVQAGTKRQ

Activity [1]: inducer [+]
Activity [2]: inducer [+]
Compound: N[C@@H](Cc1cc(I)c(Oc2cc(I)c(O)c(I)c2)c(I)c1)C(=O)O [LEVOTHYROXINE]

From ChEMBL document CHEMBL2073904, “Effect of levothyroxine administration on intestinal P-glycoprotein expression: consequences for drug disposition” (Clin Pharmacol Ther, 2002)
